In patent US11060092B2, “Inhibitors of cytoplasmic histone deacetylase 4 complex for treating or preventing vascular or valve calcification” (TECHNION RESEARCH AND DEVELOPMENT FOUNDATION LTD., priority 2016, dated 2021):

Assays:
[1] = system: GFP-HDAC4 in VSMCs; assay: GFP-HDAC4 cytoplasmic/nuclear localization in transfected VSMCs (CellProfiler scoring); assay type: cell-based, mouse; conditions: for cytoplasmic localization of HDAC4: VSMCs transfected with wild type GFP-HDAC4, vehicle 96.8%; for effect on HDAC4 location (nuclear accumulation / shuttling): VSMCs transfected with GFP-HDAC4
Experimental: (§1) Mouse aortic smooth muscle cells were purchased from ATCC (CRL-2797) and grown in DMEM supplemented with 10% FBS. 10 mmol/L beta-glycerophosphate (Sigma-Aldrich) and 0.2 mmol/L 2-Phospho-L-ascorbic acid (Sigma-Aldrich) were added to the growth media for 3-14 days to induce calcification (HPM). All cultured cells were maintained at 37° C. with 5% CO2.
Cell were transfected with pEGFP-HDAC4, pEGFP-HDAC4 3SA, pcDNA HDAC4-flag that were a gift from Tso-Pang Yao (Addgene plasmid #45636, #45637, #30485) [Cohen T. J. et al., The histone deacetylase HDAC4 connects neural activity to muscle transcriptional reprogramming. J Biol Chem 2007, 282, 33752-33759] or pEGFP-HDAC4 3-625 plasmid. Mouse ENIGMA (Pdlim7) or truncation mutants were cloned to pcDNA-3HA backbone plasmid. Transfections were performed using polyjet reagent (signaGen) according to manufacturer's instructions. Hdac4 siRNA (IDT), ENIGMA siRNA (GE Healthcare Life Sciences Dharmacon) LKB1 siRNA (IDT) and Sun2 siRNA (IDT) were transfected to the cells using Stemfect RNA Transfection Kit (Stemgent Inc.) according to manufacturer's instructions.
The pan-SIK, inhibitors: HG-9-91-01 (ApexBio #B1052), WH-4-023 (Sigma-Aldrich), MRT67307 (Sigma-Aldrich) and the pan-PKD and CamK inhibitors: CID-2011756 (Cayman #15317), KN-93 (Sigma-Aldrich K1285), were added to the HPM at final concentrations of 0.5, 1, 2, 5 and 10 μmol/L.
For localization and co-localization assays cell were transfected with pEGFP-HDAC4 plasmids, fixed with 4% formaldehyde in PBS, and blocked in 5% FBS in PBS. Staining for ENIGMA was done with overnight incubation of an antibody recognizing Pdlim7 (ProteinTech #10221-1-AP) in 2% FBS. Cy3-conjugated AffiniPure Donkey Anti-Rabbit IgG secondary antibody (Jackson ImmunoResearch) was used for detection. Nuclei were counterstained with DAPI 1 μg/ml. Cells were imaged using Zeiss Axio observer fluorescent microscope. Cytoplasmic and nuclear localization analysis was performed automatically on acquired images using CellProfiler cell image and analysis software [Carpenter A. E. et al., CellProfiler: image analysis software for identifying and quantifying cell phenotypes. Genome Biol 2006, 7, R100].

[2] = system: VSMCs; assay: qRT-PCR of osteochondrogenic markers in VSMCs; assay type: cell-based, mouse; conditions: VSMCs grown 7 days in HPM, 1 μM vs DMSO
Experimental: as §1
RNA was extracted from cultured cell using the NucleoSpin RNA kit (MACH EREY-NAGEL). The RNeasy Fibrous Tissue mini and midi kits (Qiagen) were used to extract RNA from aortic rings and human tissue (respectively). All kits were used in accordance with manufacturer protocol. Reverse transcription was done using iScript reagent (Bio-Rad). Quantitative real-time PCR was performed with iTaq universal SYBR green supermix (Bio-Rad) using Bio-Rad CFX96 real time system. Previous study has shown that Actb was among the most stably expressed genes in differentiating osteoblasts [Stephens A. S, et al., Internal control genes for quantitative RT-PCR expression analysis in mouse osteoblasts, osteoclasts and macrophages. BMC Res Notes 2011, 4, 410], and therefore expression data were normalized to the expression of Actb. For each expression analysis we used at least two different experiments, at least four biological replicates, and two technical replicates for each biological replicates for each gene. We performed a standard curve for each primer pair. […]

[3] = system: VSMCs; assay: O-cresolphthalein calcium colorimetric assay of VSMCs (matrix calcification); assay type: cell-based, mouse; conditions: VSMCs in HPM, 14 days, normalized to protein concentration
Experimental: as §1
After 14 days of growth cells were washed in PBS and incubated overnight in 0.6N HCl. HCl was collected and calcium content was measured using o-cresolphthalein Calcium colorimetric assay kit (Sigma-Aldrich) according to manufacture instructions. Calcium concentration was then normalized to cells protein concentration.

[4] = system: aortic rings; assay: Aortic rings assay in HPM (qRT-PCR of osteochondrogenic markers, Von Kossa stain); assay type: cell-based, mouse; conditions: aortic rings 14 days in HPM
Experimental: Aortas were either fresh frozen in OCT sliced into section with a cryostat or fixed in 4% formaldehyde, embedded in paraffin and cut into thin sections. Slides were stained to detect calcium depositions with Alizarin red or Von Kossa stains. Alizarin red: slides were incubated in 2% alizarin red (Sigma-Aldrich) for 5 minutes at room temperature, excess stain was washed in DDW. Von Kossa: slides were incubated for 20 minutes in 5% silver nitrate (Sigma-Aldrich), washed twice in DDW, immersed in 0.5% hydroquinone (Sigma-Aldrich) for 2 minutes followed by 2 minutes of 5% sodium thiosulfate (Alfa Aesar).
Aortic rings were prepared as described [Nature protocols, Use of the mouse aortic ring assay to study angiogenesis.—PubMed—NCBI, Last updated January 2012, Accessed on January 2012]. In brief, adult C57BL/6 mice were euthanized with isoflurane; thoracic aorta was dissected, cleaned under a microscope and cut into rings. […]
RNA was extracted from cultured cell using the NucleoSpin RNA kit (MACH EREY-NAGEL). […] Quantitative real-time PCR was performed with iTaq universal SYBR green supermix (Bio-Rad) using Bio-Rad CFX96 real time system. Previous study has shown that Actb was among the most stably expressed genes in differentiating osteoblasts [Stephens A. S, et al., Internal control genes for quantitative RT-PCR expression analysis in mouse osteoblasts, osteoclasts and macrophages. […]

[5] = system: aortic calcification; assay: Vitamin D3 induced aortic calcification in ApoE-/- mice (Von Kossa, Alizarin red); assay type: in vivo, mouse; conditions: vitamin D3 overload, 5 mg/Kg/day IP then osmotic pump
Experimental: ApoE^−/− mice were purchased from The Jackson Laboratory. All animals were housed in a temperature-controlled environment with 12 hours light/dark cycles with food and water available ad libitum. Mice were aged 8 weeks when entering the study. Aortic calcification was induced via vitamin D3 overload as previously described [Idelevich A, Rais Y, Monsonego-Ornan E (2011) Bone Gla Protein Increases HIF-1-Dependent Glucose Metabolism and Induces Cartilage and Vascular Calcification. Arterioscler Thromb Vasc Biol 31: e55-e71]. 1α,25-Dihydroxyvitamin D3 (Sigma-Aldrich) was dissolved in 100% ethanol and diluted freshly. Mice received IP injections of 1α,25-Dihydroxyvitamin D3 for six consecutive days at a final concentration of 5 μg/Kg in 5% ethanol. SIK inhibition was achieved by daily administration of HG-9-91-01 (ApexBio #B1052) in DMSO at a final concentration of 5 mg/Kg/day. Littermate ApoE−/− mice were arbitrarily divided to receive treatment or control. In the first 4 days HG-9-91-01 was injected IP and on day 5 osmotic pumps (Alzet model 1002) were implanted. Animals were monitored daily and terminated for study at day 18. Specifically, mice were sacrificed in isoflurane and aortas were collected for histology. All mice procedures were performed in accordance with institutional guidelines. […]

[6] = system: hepatocytes; conditions: cited from earlier work
[7] = system: bone mass; conditions: once daily treatment; cited from earlier work

Row | SMILES | cytoplasmic localization of HDAC4 ([1]; 10 μmol/L) | effect on HDAC4 location (nuclear accumulation / shuttling) [1] | also measured
1 | O=C(Nc1ccc(CN2CCOCC2)cc1)c1ccc(-c2cccc(Cl)c2)o1 [CID 2011756] | 99.6% | did not significantly affect the location of HDAC4 | 
2 | COc1ccc(N(C(=O)Nc2c(C)cccc2C)c2cc(Nc3ccc(N4CCN(C)CC4)cc3)ncn2)c(OC)c1 [HG-9-91-01] | 14.4% | induced nuclear import of HDAC4 in a dose dependent manner | cytoplasmic localization of HDAC4 ([1]; 0.5 μmol/L): 97.4%; cytoplasmic localization of HDAC4 ([1]; 2 μmol/L): 75.7%; upregulation of the osteochondrogenic genes [2]: blunted the upregulation of the osteochondrogenic genes; matrix calcification (matrix calcium) [3]: blunted; matrix calcification (Von Kossa stain) [4]: blunted; upregulation of the osteochondrogenic genes ([4]; 1 μM vs DMSO): blunted; development of aortic medial calcifications [5]: markedly blunted the development of these calcifications; gluconeogenic gene expression and glucose production [6]: enhanced gluconeogenic gene expression and glucose production in hepatocytes
3 | COc1ccc(S(=O)(=O)N(CCO)c2ccccc2CN(C)C/C=C/c2ccc(Cl)cc2)cc1 [KN-93] | 91.6% | did not significantly affect the location of HDAC4 | 
4 | CCC(=C/[C@H](C)C/C=C/C(C)=C/[C@@H](C)C(=O)[C@@H](C)[C@H](O)[C@@H](C)C/C(C)=C/C(=O)O)/C=C/[C@@H]1OC(=O)C=C[C@@H]1C [Leptomycin B, leptomycin B] |  | induced nuclear accumulation of GFP-HDAC4 | 
5 | O=C(NCCCNc1nc(Nc2cccc(CN3CCOCC3)c2)ncc1C1CC1)C1CCC1 [MRT67307] |  | induced the shuttling of HDAC4 to the nucleus | 
6 | COc1ccc(N(C(=O)Oc2c(C)cccc2C)c2ccnc(Nc3ccc(N4CCN(C)CC4)cc3)n2)c(OC)c1 [WH-4-023] |  | induced the shuttling of HDAC4 to the nucleus | 
7 | COc1ccc(N2C(=O)N(c3c(C)cccc3Cl)Cc3cnc(Nc4ccc(C5CCN(C)CC5)cc4OC)nc32)nc1 [YKL-05-099] |  |  | skeletal effects / bone mass [7]: mimic skeletal effects of PTH and increase bone mass
